Measured values published in patent US11149054B2, “Oxysterols and methods of use thereof” (Sage Therapeutics, Inc., priority 2016, dated 2021).
Read-outs that look alike come from different tables or passages of the source.

Assays:
[1] = target: GluN2B glutamate receptors (Homo sapiens (Human), UniProt Q05586+Q13224); assay: Whole-cell patch clamp of mammalian cells (Ionworks Barracuda), positive allosteric modulation, GluN2B; type: cell-based; settings: for Emax: read-out: Avg Emax 2B (%)
Procedure: (§1) The measurements were performed using Ion Works Barracuda platform following this procedure:
(§2) Electrophysiological Procedures:
(§3) • a) Intracellular solution (mM): 50 mM CsCl, 90 mM CsF, 2 mM MgCl2, 5 mM EGTA, 10 mM HEPES. Adjust to pH 7.2 with CsOH. • b) Extracellular solution, HB-PS (composition in mM): NaCl, 137; KCl, 1.0; CaCl2), 5; HEPES, 10; Glucose, 10; pH adjusted to 7.4 with NaOH (refrigerated until use). • c) Holding potential: −70 mV, potential during agonist/PAM application: −40 mV. Recording Procedure: • a) Extracellular buffer will be loaded into the PPC plate wells (11 μL per well). Cell suspension will be pipetted into the wells (9 μL per well) of the PPC planar electrode. • b) Whole-cell recording configuration will be established via patch perforation with membrane currents recorded by on-board patch clamp amplifiers. • c) Two recordings (scans) will be performed. First, during pre-application of test article alone (duration of pre-application—[…]) and second, during test articles and agonist (EC20 L-glutamate and 30 μM glycine) co-application to detect positive modulatory effects of the test article. […] Potentiating Effect of Positive Allosteric Modulators (PAM) on the Channel
(§4) PAM concentration-response data will be fitted to an equation of the form: % Activation=% L-glutamate EC20+{(% MAX−% L-glutamate EC20)/[1+([Test]/EC50)^N]}, where [Test] will be the concentration of PAM (test article), EC50 will be the concentration of PAM producing half-maximal activation, N will be the Hill coefficient, % L-glutamate EC20 will be the percentage of the current Elicited with L-glutamate EC20, % MAX is the percentage of the current activated with the highest dose of PAM co-admitted with L-glutamate EC20 and % Activation will be the percentage of the current elicited with L-glutamate EC10-30 at each PAM concentration. The maximal amplitude of the evoked currents are measured and defined as Peak Current Amplitude (PCA).

[2] = target: GlunN1/GluN2A glutamate receptors (Homo sapiens (Human), UniProt Q05586+Q12879); assay: Whole-cell patch clamp of mammalian cells (Ionworks Barracuda), positive allosteric modulation, GluN1/GluN2A; type: cell-based
Procedure: as §1, §2, §3, §4

[3] = % potentiation of current elicited with EC20 L-glutamate and 30 μM glycine
[4] = HEK293 cells, % potentiation of current elicited with EC20 L-glutamate and 30 μM glycine, read-out: Avg Emax 2A (%)
[5] = co-application with EC20 L-glutamate and 30 μM glycine, 8-point concentration-response, read-out: Avg EC50 2B
[6] = HEK293 cells, co-application with EC20 L-glutamate and 30 μM glycine, 8-point concentration-response, read-out: Avg EC50 2A

Chain of GluN2B glutamate receptors (Q13224 27-1484, other chains not shown): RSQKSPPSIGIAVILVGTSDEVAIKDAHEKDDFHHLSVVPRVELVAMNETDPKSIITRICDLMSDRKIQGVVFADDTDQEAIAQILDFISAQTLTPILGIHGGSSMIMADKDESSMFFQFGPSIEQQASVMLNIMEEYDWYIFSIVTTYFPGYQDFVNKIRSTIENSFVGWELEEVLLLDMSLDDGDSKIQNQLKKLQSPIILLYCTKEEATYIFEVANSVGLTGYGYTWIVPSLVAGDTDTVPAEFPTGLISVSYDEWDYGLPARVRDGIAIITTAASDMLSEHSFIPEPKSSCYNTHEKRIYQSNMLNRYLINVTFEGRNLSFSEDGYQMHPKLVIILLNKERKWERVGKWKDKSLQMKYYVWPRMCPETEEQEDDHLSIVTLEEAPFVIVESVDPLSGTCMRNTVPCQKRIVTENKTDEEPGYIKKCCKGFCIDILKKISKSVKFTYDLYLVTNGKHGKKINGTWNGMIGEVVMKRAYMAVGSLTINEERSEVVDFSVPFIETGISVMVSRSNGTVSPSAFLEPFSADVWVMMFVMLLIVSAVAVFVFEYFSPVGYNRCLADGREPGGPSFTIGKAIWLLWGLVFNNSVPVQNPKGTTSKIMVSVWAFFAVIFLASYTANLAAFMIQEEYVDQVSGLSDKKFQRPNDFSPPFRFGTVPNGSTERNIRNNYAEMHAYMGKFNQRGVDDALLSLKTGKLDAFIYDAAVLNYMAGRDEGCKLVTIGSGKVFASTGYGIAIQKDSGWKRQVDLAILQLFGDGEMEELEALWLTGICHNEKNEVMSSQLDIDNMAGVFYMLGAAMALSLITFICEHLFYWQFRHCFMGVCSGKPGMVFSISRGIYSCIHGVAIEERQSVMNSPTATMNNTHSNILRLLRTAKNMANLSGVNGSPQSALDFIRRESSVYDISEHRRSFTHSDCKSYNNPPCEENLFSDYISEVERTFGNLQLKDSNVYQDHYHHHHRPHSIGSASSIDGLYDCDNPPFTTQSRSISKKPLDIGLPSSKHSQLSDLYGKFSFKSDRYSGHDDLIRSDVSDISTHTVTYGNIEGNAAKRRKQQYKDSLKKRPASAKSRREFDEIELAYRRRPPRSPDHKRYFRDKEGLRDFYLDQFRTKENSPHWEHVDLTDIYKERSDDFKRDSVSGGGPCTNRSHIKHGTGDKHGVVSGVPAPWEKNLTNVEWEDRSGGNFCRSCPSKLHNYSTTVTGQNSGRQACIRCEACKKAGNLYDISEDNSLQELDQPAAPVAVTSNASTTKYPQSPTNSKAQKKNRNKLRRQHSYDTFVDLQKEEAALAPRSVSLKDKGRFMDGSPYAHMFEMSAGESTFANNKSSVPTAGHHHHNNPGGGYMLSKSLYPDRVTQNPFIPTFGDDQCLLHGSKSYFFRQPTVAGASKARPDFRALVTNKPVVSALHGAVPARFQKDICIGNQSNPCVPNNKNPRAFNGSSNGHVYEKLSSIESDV
Chain of GlunN1/GluN2A glutamate receptors (Q12879 23-1464, other chains not shown): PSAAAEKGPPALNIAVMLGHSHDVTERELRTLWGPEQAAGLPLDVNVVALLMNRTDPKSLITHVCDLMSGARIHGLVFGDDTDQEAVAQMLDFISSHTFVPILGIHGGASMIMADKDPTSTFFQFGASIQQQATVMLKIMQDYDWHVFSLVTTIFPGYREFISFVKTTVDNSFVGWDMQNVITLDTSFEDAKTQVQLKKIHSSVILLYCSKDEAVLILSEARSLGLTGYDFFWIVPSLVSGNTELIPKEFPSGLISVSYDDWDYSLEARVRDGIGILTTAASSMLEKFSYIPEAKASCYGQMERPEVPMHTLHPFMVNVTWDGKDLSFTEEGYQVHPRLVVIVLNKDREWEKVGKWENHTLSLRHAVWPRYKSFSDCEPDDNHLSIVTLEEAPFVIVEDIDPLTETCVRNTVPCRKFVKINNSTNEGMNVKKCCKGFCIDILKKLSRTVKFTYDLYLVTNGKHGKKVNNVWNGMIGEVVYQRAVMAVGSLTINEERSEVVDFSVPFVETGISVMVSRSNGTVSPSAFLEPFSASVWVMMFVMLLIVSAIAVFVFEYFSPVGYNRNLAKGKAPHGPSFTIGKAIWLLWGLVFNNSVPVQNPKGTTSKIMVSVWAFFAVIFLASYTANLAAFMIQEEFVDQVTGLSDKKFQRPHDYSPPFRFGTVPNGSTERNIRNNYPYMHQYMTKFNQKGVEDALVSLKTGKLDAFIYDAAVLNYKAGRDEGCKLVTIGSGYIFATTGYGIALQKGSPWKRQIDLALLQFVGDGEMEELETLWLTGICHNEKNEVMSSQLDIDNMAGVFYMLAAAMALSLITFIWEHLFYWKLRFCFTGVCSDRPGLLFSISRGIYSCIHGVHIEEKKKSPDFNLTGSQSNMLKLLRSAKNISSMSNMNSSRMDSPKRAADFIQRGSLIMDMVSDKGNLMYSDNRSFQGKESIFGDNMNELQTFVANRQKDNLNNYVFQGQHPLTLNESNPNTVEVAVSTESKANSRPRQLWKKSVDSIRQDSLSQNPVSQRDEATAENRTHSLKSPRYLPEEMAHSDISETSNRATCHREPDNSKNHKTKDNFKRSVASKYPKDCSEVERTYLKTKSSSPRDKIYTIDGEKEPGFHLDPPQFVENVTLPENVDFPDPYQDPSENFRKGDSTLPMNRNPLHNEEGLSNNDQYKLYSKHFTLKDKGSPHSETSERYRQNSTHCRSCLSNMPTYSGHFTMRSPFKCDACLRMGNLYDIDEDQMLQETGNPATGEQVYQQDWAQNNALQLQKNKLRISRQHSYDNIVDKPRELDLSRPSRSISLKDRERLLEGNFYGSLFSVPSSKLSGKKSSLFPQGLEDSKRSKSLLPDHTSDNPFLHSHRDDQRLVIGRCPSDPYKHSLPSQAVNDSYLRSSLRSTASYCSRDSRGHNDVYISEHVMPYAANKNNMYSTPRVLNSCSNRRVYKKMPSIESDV

Compound | EC50 [1] | Emax [1, 3] | EC50 [2] | Emax [2, 4] | EC50 [1, 5] | EC50 [2, 6] | Emax [1] | Emax ([2]; HEK293, read-out: Avg Emax 2A (%))
CC[C@]1(O)CC[C@@]2(C)[C@@H](CC[C@@H]3[C@@H]2CC[C@]2(C)[C@@H]([C@H](C)CCC(O)c4ccccc4)CC[C@@H]32)C1 (some centres unmarked) [Compound 6544] | 498 nM | 415% | 559 nM | 253% | – | – | – | –
CC[C@]1(O)CC[C@@]2(C)C(=CC[C@H]3[C@@H]4CC[C@H]([C@H](C)CC[C@@H](O)c5cccc(F)c5)[C@@]4(C)CC[C@@H]32)C1 (single isomer, unassigned) [Compound 6895] | 329 nM | 354% | 174 nM | 241% | – | – | – | –
CC[C@]1(O)CC[C@H]2[C@@H](CC[C@@H]3[C@@H]2CC[C@]2(C)[C@@H]([C@H](C)CCC4(O)CC4)CC[C@@H]32)C1 [Compound 8127] | 571 nM | 211% | 543 nM | 136% | – | – | – | –
CC[C@]1(O)CC[C@@]2(C)C(=CC[C@H]3[C@@H]4CC[C@H]([C@H](C)CC[C@@H](O)c5ccccc5F)[C@@]4(C)CC[C@@H]32)C1 [Compound 7282] | 174 nM | – | 95.9 nM | – | – | – | – | –
COC[C@H]1CC[C@](O)(CC[C@@H](C)[C@H]2CC[C@H]3[C@@H]4CC[C@H]5C[C@](O)(C(F)(F)F)CC[C@]5(C)[C@H]4CC[C@]23C)CC1 [Compound 4657] | 130 nM | 62.9% | 422 nM | 74% | – | – | – | –
CC(C)C(O)CC[C@@H](C)[C@H]1CC[C@H]2[C@@H]3CC[C@H]4C[C@@](C)(O)CC[C@@H]4[C@H]3CC[C@]12C (some centres unmarked) [Compound 175] | 288 nM | 279% | 574 nM | 367% | – | – | – | –
C[C@H](CC[C@@](C)(O)c1ccccc1)[C@H]1CC[C@H]2[C@@H]3CC=C4C[C@@](C)(O)CC[C@]4(C)[C@H]3CC[C@]12C [Compound 7467] | > 10000 nM | – | – | – | – | – | – | –
CC[C@]1(O)CC[C@H]2C(=CC[C@@H]3[C@@H]2CC[C@]2(C)[C@@H]([C@H](C)CCC[C@@H](O)C(F)(F)F)CC[C@@H]32)C1 [Compound 10456] | – | 266% | – | 231% | 209 nM | 240 nM | – | –
CC[C@]1(O)CC[C@H]2[C@@H](CC[C@@H]3[C@@H]2CC[C@]2(C)[C@@H]([C@H](C)CCCC(C)(C)O)CC[C@@H]32)C1 [Compound 9670] | 220 nM | 213% | 366 nM | 154% | – | – | – | –
CC[C@H](O)CC[C@@H](C)[C@H]1CC[C@H]2[C@@H]3CC[C@H]4C[C@](O)(CC)CC[C@@H]4[C@H]3CC[C@]12C [Compound 8809] | 160 nM | – | 533 nM | – | – | – | 78.2% | 73.6%
C[C@H](CC[C@]1(O)CCOC1)[C@H]1CC[C@H]2[C@@H]3CC[C@H]4C[C@](O)(C(F)(F)F)CC[C@]4(C)[C@H]3CC[C@]12C [Compound 2707] | – | 259% | – | 113% | 103 nM | 119 nM | – | –
C[C@H](CC[C@]1(O)CCOC1)[C@H]1CC[C@H]2[C@@H]3CC=C4C[C@](O)(C(F)(F)F)CC[C@]4(C)[C@H]3CC[C@]12C [Compound 3496] | – | – | 35.1 nM | – | – | – | – | –
C[C@H](CCC(O)c1ccncc1)[C@H]1CC[C@H]2[C@@H]3CC=C4C[C@@](C)(O)CC[C@]4(C)[C@H]3CC[C@]12C (some centres unmarked) [Compound 154] | – | – | – | 18.2% | – | > 10000 nM | – | –
C[C@H](CC[C@]1(O)CC[C@H](C)CC1)[C@H]1CC[C@H]2[C@@H]3CC[C@H]4C[C@](O)(C(F)(F)F)CC[C@]4(C)[C@H]3CC[C@]12C [Compound 3877] | 512 nM | – | – | – | – | – | – | –
CC[C@]1(O)CC[C@@]2(C)C(=CC[C@H]3[C@@H]4CC[C@H]([C@H](C)CC[C@H](O)c5ccc(F)cc5)[C@@]4(C)CC[C@@H]32)C1 [Compound 7146] | 216 nM | – | – | – | – | – | – | –
